Experimental data taken from US20240285599A1, “Mature-Hepatocyte Transdifferentiation Suppressing Composition” (OSAKA UNIVERSITY, priority 2021, published 2024).

Experiments:
[1] = tested on: TRAF3/PTEN knockdown HepG2 cell; assay: Cell proliferation assay (IncuCyte) of TRAF3/PTEN knockdown HepG2; type: cell-based, human
Method: Hepatocytes or cholangiocarcinoma cells were inoculated on a 96-well plate, and their cell proliferation was analyzed with IncuCyte (trademark) Si (Sartorius AG, Germany) in accordance with the manufacturer's instructions.
(§1) Specifically, 24 hours after the start of the culture of each of the PTKD #1HepG2 and the PTKD #1PHH obtained in Test Example 5, NIKSMI described above was added at a concentration of 9 μM. 48 Hours after that, the cells were recovered, and the mRNA of KRT19 was quantified, followed by immunoblotting.
Specifically, the NIK KD #1 or the NIK KD #2 was transfected into the PTKD #1HepG2 and the PTKD #1PHH obtained in Test Example 5 to provide a PTKDNIK #1 and a PTKDNIK #2, respectively. 72 Hours after the start of the culture of each of the cells, the cell was recovered, and the mRNA of KRT19 was quantified, followed by immunoblotting.
The above-mentioned cell proliferation analysis and the production of the cell growth curves were performed with IncuCyte (trademark).

[2] = tested on: TRAF3/PTEN knockdown HepG2 cell; assay: KRT19 mRNA quantification and immunoblotting (P52) in TRAF3/PTEN knockdown HepG2; type: cell-based, human; conditions: HepG2 (PTKD #1); for increase in expression of P52 by knockdown of TRAF3 and PTEN: western blot
Method: The transfection of siRNA or a plasmid into cells was performed with Lipofectamine RNAiMAX Transfection Reagent (Thermo Fisher Scientific, Inc., USA) or Lipofectamine 2000 (Thermo Fisher Scientific, Inc., USA), respectively, and with Opti-MEM (Thermo Fisher Scientific, Inc., USA). The transfection of the siRNA was performed as follows: the cells were dispersed at a concentration of 100,000 cells/mL; 10 μM of the siRNA was mixed into 100 μL of the Opti-MEM at a ratio of 1 μL, and the mixture was left at rest for 5 minutes; and then 3 μL of the RNAiMAX was mixed into the mixture, and the whole was left at rest for 15 minutes, followed by administration to the supernatant of the previously dispersed cells. Further, a medium change was performed 24 hours thereafter.
A procedure for western blotting is as described in the previous report (Tanaka S, et al. Hepatology. 2016; 64(6): 1994-2014). The protein extracts of cells and animal tissues were prepared by using a lysis buffer having added thereto a protease inhibitor (Nacalai Tesque, Inc., Japan) and a phosphatase inhibitor (Nacalai Tesque, Inc., Japan). In western blotting for the detection of NIK, MG-132 (ChemScene, USA) was administered at a concentration of 5 μM 4 hours before protein recovery. The following antibodies were used in immunodetection: TRAF3 (1:1,000 Cell Signaling, #4729), PTEN (1:1,000 Cell Signaling, #9188), KRT19 (1:50,000 Abcam, #ab52625), p100/p52 (1:1,000 Cell Signaling, #4882), NIK (1:1,000 Cell Signaling, #4994), and β-actin (1:10,000 Sigma-Aldrich Co., LLC, #A5316). Anti-mouse IgG, HRP-linked whole Ab sheep (Cytiva, Japan), or anti-rabbit IgG, HRP-linked whole Ab donkey (Cytiva, Japan) was used as a secondary antibody, and luminescence analysis was performed with SuperSignal (trademark) West Pico PLUS Chemiluminescent Substrate (Thermo Fisher Scientific, Inc., USA).
Total RNA was extracted from a cell line and a human liver tissue with RNeasy Mini Kit (QIAGEN N.V., Nederland). Then, 1 μg of the total RNA was reverse-transcribed with ReverTra Ace qPCR RT Kit (Toyobo Co., Ltd., Tokyo) to synthesize complementary DNA. The mRNA expression of each of the following genes was analyzed through use of a TaqMan gene expression assay: human GAPDH (Hs02758991), human TRAF3 (Hs00936781), human PTEN (Hs02621230), human KRT19 (Hs00761767), human NIK (Hs01089753), mouse Gapdh (Mm09999915), mouse Traf3 (Mm00495752), mouse Pten (Mm00477208), mouse Krt19 (Mm00492980), mouse NIK (Mm00444166), and mouse Alb (Mm00802090). The gene expression amount of a human and the gene expression amount of a mouse were normalized to the expression amount of GAPDH.
The effect of TRAF3/PTEN inhibition on the expression of a bile duct marker in each of a primary human hepatocyte (hereinafter also referred to as “PHH”) and a human hepatoma cell line HepG2 cell (hereinafter also referred to as “HepG2”) was evaluated. The PHH and the HepG2 are each a mature hepatocyte having an albumin-producing ability. The TRAF3 and PTEN of each of the HepG2 and the PHH were knocked down with siRNA. The term “[…]” means a HepG2 or a PHH having introduced thereinto siRNA Traf3 #2 and Pten #1 (hereinafter also referred to as “PTKD #1HepG2” and “PTKD #1PHH” respectively). The term “PTKD #2” means a HepG2 or a PHH having introduced thereinto the siRNA Traf3 #2 and Pten #3 (hereinafter also referred to as “PTKD #2HepG2” and “PTKD #2PHH” respectively). All the siRNAs were obtained from Thermo Fisher Scientific, Inc. The sequence of each of the siRNAs is described below.
as §1, with “immunoblotting. […]” for “immunoblotting.”

[3] = NIK siRNA transfected, cell growth curve FIG. 14B
[4] = NIK siRNA transfected, 72 h, FIG. 13
[5] = NIK siRNA transfected, cells recovered after 72 h culture, FIG. 13

Molecule	increase in proliferation rate of the HepG2 cell by knockdown of TRAF3 and PTEN ([1]; NIKSMI 9 μM, cell growth curve FIG. 14A)	increase in expression of KRT19 by knockdown of TRAF3 and PTEN ([2]; NIKSMI 9 μM added 24 h after start of culture, cells recovered 48 h later, FIG. 11)	increase in expression of P52 by knockdown of TRAF3 and PTEN ([2]; NIKSMI 9 μM, 48 h, FIG. 11)	increase in proliferation rate of the HepG2 cell by knockdown of TRAF3 and PTEN [1, 3]	increase in expression of P52 by knockdown of TRAF3 and PTEN [2, 4]	increase in expression of KRT19 by knockdown of TRAF3 and PTEN [2, 5]
COc1cc(C(N)=O)nc(-c2cccc(C#C[C@]3(O)CCN(C)C3=O)c2)c1 [NIKSMI, (R)-6-(3-((3-hydroxy-1-methyl-2-oxopyrrolidin-3-yl)ethynyl)phenyl)-4-methoxypicolinamide]	blocked	significantly suppressed	significantly suppressed			
NIK KD #1: siRNA of NIK, SEQ ID NO: 2 (sense) and 3 (antisense), from Thermo Fisher Scientific (sense CAAACGCAAAGAGCAAGAAUU; antisense UUCUUGCUCUUUGCGUUUGCA; listed as RNA, chemistry not given here)				blocked	significantly suppressed	significantly suppressed
NIK KD #2: siRNA of NIK, SEQ ID NO: 4 (sense) and 5 (antisense), from Thermo Fisher Scientific (sense GCAAAGAGCAAGAACCAAAUU; antisense UUUGGUUCUUGCUCUUUGCGU; listed as RNA, chemistry not given here)				blocked	significantly suppressed	significantly suppressed
